Results on 17 molecules are retold here after patent US11154563B2, “Immunoproteasome inhibitors” (Principia Biopharma Inc., priority 2017, dated 2021).

Some results are limits rather than exact numbers.

For test [1], the target named is constitutive proteasome β5c unit (Homo sapiens, UniProt P20618+P28074). The test is described as follows: Caliper-based proteasome enzymatic activity assay, β5c. To be noted: human recombinant constitutive proteasome 0.3 nM, FAM-peptide substrate 1 μM, 3 h at rt; read-out: β5c subunit IC50. It is filed as biochemical. In short, it runs like this: (§1)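 Recombinant human immunoproteasome or constitutive proteasome (0.3 nM) with 1 μM FAM-peptide in 20 mM Hepes pH 7.4, 0.015% SDS, 0.01% BSA; LMP7/β5c ran 3 h at rt and were stopped with 5 uM carfilzomib, LMP2 ran 2 h and was stopped with 6.7 uM ixazomib. Cleaved product quantified by microfluidic separation; IC50 from percent inhibition.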

In test [2] the target is immunoproteasome LPM2/β1i subunit (Homo sapiens, UniProt P28065+P40306). The test can be described thus: Caliper-based proteasome enzymatic activity assay, LMP2. It is filed as biochemical. To be noted: human recombinant immunoproteasome 0.3 nM, FAM-peptide substrate 1 μM, 2 h at rt. Here is the method:
A Caliper-based proteasome assay (Caliper Life Sciences, Hopkinton, Mass.) was used to measure inhibition of the immunoproteasome LMP7/B5i subunit, the immunoproteasome LPM2/β1i subunit, and the constitutive proteasome β5c unit for a compound of Formula (I). For LMP7 and β5c, serial dilutions of test compounds were incubated with either human recombinant immunoprotcasome or constitutive proteasome (0.3 nM enzyme) and a carboxyfluorescein (FAM)-labeled peptide substrate FAM-TYETFKSIMKKSPF-NH2 (1 μM) at it for 3 h. The reaction was then terminated with a buffer containing the known proteasome inhibitor carfilzomib at a concentration of 5 uM. For LMP2, serial dilutions of test compounds were incubated with human recombinant immunoproteasome proteasome (0.3 nM enzyme) and a carboxyfluorescein (FAM)-labeled peptide substrate FAM-[…]-NH2 (1 μM) at rt for 2 h. The reaction was then terminated with a buffer containing the known proteasome inhibitor ixazomib at a concentration of 6.7 uM. The reaction buffer was 20 mM Hepes pH 7.4, 0.01% bovine serum albumin, 0.015% SDS, 0.5 mM EDTA, 1%0/DMSO. The peptide cleavage reaction product was quantified on a Caliper LabChip 3000. Percent inhibition was calculated for each compound dilution and the concentration that produced 50% inhibition was calculated. This value is presented as the IC50.

In a further test the target is T1, PBMC/LMP7 (Homo sapiens, UniProt P28062).
T1 construct: endogenous in cells; host or cells: primary human PBMC
The test can be described thus: Inhibition of proteasome activity in cells (Proteasome-Glo), PBMC. It is filed as cell-based. To be noted: primary human PBMC, 2 h incubation, Suc-LLVY-aminoluciferin substrate. Here is the method:
The cell-based effects of a compound described herein on the immunoproteasome are determined by measuring inhibition of proteasome activity in cells using the Proteasome-Glo™ Cell-Based Reagent (Promega, Madison Wis.). The Proteasome-Glo™ assay contains a specific luminogenic proteasome substrate in a buffer optimized for cell permeabilization, proteasome activity, and luciferase activity. For the chymotrypsin-like activity (LMP7 and […]), the peptide substrate is Suc-LLVY-aminoluciferin (Succinyl-leucine-leucine-valine-tyrosine-aminoluciferin). Cleavage of the substrate by proteasome results in luminescent signal which is proportional to the proteasome activity. The cell line THP-1 (a monocytic leukemia cell line enriched in immunoproteasome), the cell line HT-29 (a colorectal adenocarcinoma cell line enriched in constitutive proteasome), and primary human peripheral blood mononuclear cells (PBMC) are used to assess proteasome activity. Cells are seeded in a 96-well plate at 10,000 cells per well in RPMI 1640 high glucose medium with 10% fetal bovine serum (FBS). Compound dilutions are added to cells starting at a concentration of 5 uM and decreasing in tripling dilutions. The final DMSO concentration is 1%. The concentration range is adjusted as needed for compounds of different potencies. The cells treated with compounds are incubated for 2 h at 37° C. in 5% CO2. At the end of the 2 h incubation period, cells are transferred to white 384 well assay plates. 20 uL of Proteasome-Glo™ Reagent is added to each well and incubated for 10 min at rt. The plate is read in the Analyst HT instrument (Molecular Devices, Sunnyvale, Calif.) using luminescence mode. The percent inhibition of activity is plotted as a function of log compound concentration. The IC50 is then calculated for each compound using Prism software from GraphPad Software Inc. (San Diego, Calif.).

For test [3], the target named is immunoproteasome LMP7/B5i subunit (Homo sapiens, UniProt P20618+P28062). The test can be described thus: Caliper-based proteasome enzymatic activity assay, LMP7. It is filed as biochemical. To be noted: human recombinant immunoproteasome 0.3 nM, FAM-peptide substrate 1 μM, 3 h at rt. In short, it runs like this:
as §1

The subject of test [4] is multiple myeloma cell lines and primary patient tumor cells. As to conditions: including cells resistant to conventional and novel prior therapies; cited from earlier work.
The next test has as its system MRL/lpr lupus model. As to conditions: cited from earlier work.
The subject of test [5] is murine collagen-induced arthritis. To be noted: including reduction of inflammation and bone erosion; cited from earlier work.
Test [6] has as its system Hashimoto's thyroiditis model. As to conditions: autoantibody-driven model; cited from earlier work.
The test system of the next test is Th1/17 differentiation. To be noted: human and mouse; cited from earlier work.
Test [7] concerns murine DSS-induced colitis model. To be noted: cited from earlier work.
In the next test the test system is tumor growth. As to conditions: cited from earlier work.
The next test deals with prostate PC-3 cell line. To be noted: in vitro; cited from earlier work.

As to `CC(C)C=C(C#N)C(=O)N1CCCC1CCC(=O)N[C@@H](Cc1ccccc1)B(O)O` (single isomer, unassigned) [Example 3], the IC50 (as a rule, the midpoint of a concentration-inhibition curve) in test [1] was > 5000 nM; in test [2], 3.43 µM; on PBMC/LMP7, 130 nM; in [3], 60 nM.
With `CC(C)C=C(C#N)C(=O)N1CCCC[C@@H]1COC(=O)N[C@@H](Cc1ccccc1)B(O)O` [Example 2, ((R)-1-(((((R)-1-(2-cyano-4-methylpent-2-enoyl)piperidin-2-yl)methoxy)carbonyl)amino)-2-phenylethyl)boronic acid], the IC50 in test [1] was > 5000 nM; in [2], > 5 µM; on PBMC/LMP7, 420 nM; in test [3] it was 55 nM.
With `CC(C)C=C(C#N)C(=O)N1CCCC1CCC(=O)N[C@@H](Cc1ccccc1)B(O)O` (single isomer, unassigned) [Example 4], the IC50 in test [1] turned out to be 637 nM; in test [2], 2.44 µM; against PBMC/LMP7, 39 nM; in test [3] it was 4 nM.
`CC1=C(C(=O)N[C@H](C)C(=O)N[C@@H](Cc2c[nH]c3ccccc23)C(=O)N[C@@H](Cc2ccccc2)C(=O)[C@@]2(C)CO2)Cc2ccccc21` [PR-924]: the “growth of multiple myeloma cells” value in test [4] is given as “inhibit growth”.
On to `COc1ccc(C[C@H](NC(=O)[C@H](C)NC(=O)CN2CCOCC2)C(=O)N[C@@H](Cc2ccccc2)C(=O)[C@@]2(C)CO2)cc1` [PR-957], for which, in the test on MRL/lpr lupus model, the disease progression entry was “prevented disease progression”; the “plasma cell numbers and anti-dsDNA IgG levels” value was “reduced plasma cell numbers and anti-dsDNA IgG levels”. Moreover, the “disease activity in collagen-induced arthritis” value in test [5] is “significantly inhibit disease activity”. For the same molecule, in test [6], the “efficacy in Hashimoto's thyroiditis model” value is on record as “efficacious”. For the same molecule, the “block of Th1/17 differentiation” value with Th1/17 differentiation is “potently block”. In test [7], the “inflammation and tissue destruction” value was “reduced inflammation and tissue destruction”.
On to `CC(C)C=C(C#N)C(=O)N1CCC[C@@H]1COC(=O)N[C@@H](Cc1ccccc1)B(O)O` [Example 7, ((R)-1-(((((R)-1-(2-cyano-4-methylpent-2-enoyl)pyrrolidin-2-yl)methoxy)carbonyl)amino)-2-phenylethyl)boronic acid], for which the IC50 is > 5000 nM in [1], > 5 µM in test [2], 9.4 nM at PBMC/LMP7 and 2.6 nM in [3].
On to `CC(C)C=C(C#N)C(=O)N1CCCCC1CCC(=O)N[C@@H](Cc1ccccc1)B(O)O` (single isomer, unassigned) [Example 6], for which the IC50 in [1] is > 5000 nM; in [2], 0.965 µM; at PBMC/LMP7, 140 nM; in [3], 57 nM.
For `CC(C)(C)C=C(C#N)C(=O)N1CCC[C@@H]1COC(=O)N[C@@H](Cc1ccccc1)B(O)O` [Example 10, ((R)-1-(((((R)-1-(2-cyano-4,4-dimethylpent-2-enoyl)pyrrolidin-2-yl)methoxy)carbonyl)amino)-2-phenylethyl)boronic acid], the IC50 was 3410 nM in test [1], > 5 µM in test [2], 7.1 nM against PBMC/LMP7 and 1.8 nM in test [3].
Turning to `CC(C)C=C(C#N)C(=O)N1CCCCC1CCC(=O)N[C@@H](Cc1ccccc1)B(O)O` (single isomer, unassigned) [Example 5], the IC50 was determined as 1040 nM in test [1], 0.448 µM in test [2], 23 nM on PBMC/LMP7 and 7.6 nM in test [3].
Regarding `CCCCCCC(=O)N[C@@H](C)C(=O)N[C@@H](CC(C)C)C(=O)[C@@]1(CO[Si](C)(C)C(C)(C)C)CO1` [UK-101], the “tumor growth in vivo” value with tumor growth was “significantly suppressed tumor growth”. The “apoptosis of PC-3 cells” value with prostate PC-3 cell line was “induced apoptosis”.
As to `CC(C)C=C(C#N)C(=O)N1CCC[C@@H]1COCCC(=O)N[C@@H](Cc1ccccc1)B(O)O` [Example 1, ((R)-1-(3-(((R)-1-(2-cyano-4-methylpent-2-enoyl)pyrrolidin-2-yl)methoxy)propanamido)-2-phenylethyl)boronic acid], the IC50 turned out to be 1460 nM in test [1], 190 nM against PBMC/LMP7 and 79 nM in [3].
As to `CC(C)(C)C=C(C#N)C(=O)N1CCCC[C@@H]1COC(=O)N[C@@H](Cc1ccccc1)B(O)O` [Example 15, ((R)-1-(((((R)-1-(2-cyano-4,4-dimethylpent-2-enoyl)piperidin-2-yl)methoxy)carbonyl)amino)-2-phenylethyl)boronic acid], the IC50 in [1] is 4190 nM; in test [2] it was > 5 µM; at PBMC/LMP7, 3.3 nM; in test [3] it was 5.5 nM.
For `Cc1ccc(C[C@H](NC(=O)OC[C@H]2CCCCN2C(=O)C(C#N)=CC(C)(C)N2CCC(F)(F)C2)B(O)O)cc1` [Example 41, ((R)-1-(((((R)-1-(2-cyano-4-(3,3-difluoropyrrolidin-1-yl)-4-methylpent-2-enoyl)piperidin-2-yl)methoxy)carbonyl)amino)-2-(p-tolyl)ethyl)boronic acid], the IC50 in test [1] was 518 nM; in [2], > 5 µM; in [3], 1.6 nM.
With `CC(C)(C=C(C#N)C(=O)N1CCCC[C@@H]1COC(=O)N[C@@H](Cc1ccc(F)cc1)B(O)O)N1CCC(F)(F)C1` [Example 82, ((R)-1-(((((R)-1-(2-cyano-4-(3,3-difluoropyrrolidin-1-yl)-4-methylpent-2-enoyl)piperidin-2-yl)methoxy)carbonyl)amino)-2-(4-fluorophenyl)ethyl)boronic acid], the IC50 is 2150 nM in test [1], > 5 µM in test [2] and 1.4 nM in test [3].
In the same order, the values of `Cc1ccc(C[C@H](NC(=O)OC[C@H]2COCCN2C(=O)C(C#N)=CC(C)(C)N2CCC(F)(F)C2)B(O)O)cc1` [Example 86, ((R)-1-(((((R)-4-(2-cyano-4-(3,3-difluorpyrrolidin-1-yl)-4-methylpent-2-enoyl)morpholin-3-yl)methoxy)carbonyl)amino)-2-(p-tolyl)ethyl)boronic acid] are 566 nM, > 5 µM and 2.7 nM.
In the same order, the values of `CC(C)(C=C(C#N)C(=O)N1CCC[C@@H]1COC(=O)N[C@@H](Cc1ccccc1)B(O)O)N1CCC(F)(F)C1` [Example 35, ((R)-1-(((((R)-1-(2-cyano-4-(3,3-difluoropyrrolidin-1-yl)-4-methylpent-2-enoyl)pyrrolidin-2-yl)methoxy)carbonyl)amino)-2-phenylethyl)boronic acid] are 3020 nM, > 5 µM and 2 nM.
For `C=CC(=O)N1CCC[C@@H]1COC(=O)N[C@@H](Cc1coc2ccccc12)B(O)O` [Example 36, ((R)-1-(((((R)-1-acryloylpyrrolidin-2-yl)methoxy)carbonyl)amino)-2-(benzofuran-3-yl)ethyl)boronic acid], the results for the IC50 in test [1], in test [2] and in [3] were 397 nM, > 5 µM and 6.9 nM, respectively.
